This is an account of results in patent US8329738B2, “Use of AMPK-activating imidazole derivatives, preparation process therefor and pharmaceutical compositions comprising them” (Merck Patent Gesellschaft mit Beschränkter Haftung, priority 2006, dated 2012).

SMILES strings stand for the structures.

For orientation: melting point means the temperature, or range, at which the solid turns liquid.

One series relates to AMPK. Put plainly: AMPK activation: phosphorylation of peptide AMARAA, Delfia protocol. It counts as biochemical. The settings on record: relative to the basal activity (100%) obtained in the absence of AMP, partially purified AMPK from rat liver. On the procedure: 25 mU of AMPK are incubated in the presence of different concentrations of AMP or of products, for 30 minutes at 30° C., in a final volume of 30 μl comprising 50 mM Hepes, 19 mM MgCl2, 125 μM ATP, 5 mM NaPPi, 1 mM EDTA, 1 mM DTT, 2 mM Na3VO4 and 25 μM of peptide AMARAA biotinyl (Biot-NH-AMARAASAAALARRR-COOH).
The phosphorylation of the peptide AMARAA is then measured according to a Delfia protocol (Perkin-Elmer), using a europium-labelled anti-phospho-serine specific antibody.
The AMPK used in this test is a partially purified protein from rat liver.
The percentage of activation is calculated relative to the basal activity (100%) obtained in the absence of AMP.
As for `COc1ccc(NC(=O)Nc2ccc(Cn3cnc(O)c3C(N)=O)cc2)cc1` [Example 43, 5-hydroxy-3-{4-[3-(4-methoxyphenyl)ureido]benzyl}-3H-imidazole-4-carboxamide], the “% Activation at 200 μM” value was 229%.
On the same count and under the same terms, then `NC(=O)c1c(O)ncn1Cc1ccc(NC(=O)Nc2ccc(Cl)cc2)cc1` [Example 44, 5-hydroxy-3-{4-[3-(4-chlorophenyl)ureido]benzyl}-3H-imidazole-4-carboxamide], with 147%; and `NC(=O)c1c(O)ncn1Cc1ccc(NC(=O)Nc2cccc3ccccc23)cc1` [Example 47, 5-hydroxy-3-[4-(3-naphthalen-1-ylureido)benzyl]-3H-imidazole-4-carboxamide], with 184%.
Same read-out and setting: in the case of `CCc1ccc(NC(=O)Nc2ccc(Cn3cnc(O)c3C(N)=O)cc2)cc1` [Example 56, 5-hydroxy-3-{4-[3-(4-ethylphenyl)ureido]benzyl}-3H-imidazole-4-carboxamide] it was 289%; in that of `CSc1ccc(NC(=O)Nc2ccc(Cn3cnc(O)c3C(N)=O)cc2)cc1` [Example 58, 5-hydroxy-3-{4-[3-(4-methylsulfanylphenyl)ureido]benzyl}-3H-imidazole-4-carboxamide], 311%.

Tested on in another series: not given
Experiment: not given
Settings: not given
With `NC(=O)c1ncn(CCOc2ccc(F)cc2)c1O` [Example 1, 1-[2-(4-fluorophenoxy)ethyl]-5-hydroxy-1H-imidazole-4-carboxamide], the melting point came to 204 °C.
As for `NC(=O)c1ncn(CCOc2ccccc2)c1O` [Example 2, 5-hydroxy-1-(2-phenoxyethyl)-1H-imidazole-4-carboxamide], the melting point is 192 °C.
On the same count and under the same terms, then `N#Cc1ccc(OCCn2cnc(C(N)=O)c2O)cc1` [Example 3, 1-[2-(4-cyanophenoxy)ethyl]-5-hydroxy-1H-imidazole-4-carboxamide], with 190 °C; and `COC(=O)c1ccc(OCCn2cnc(C(N)=O)c2O)cc1` [Example 4, methyl 4-[2-(4-carbamoyl-5-hydroxyimidazol-1-yl)ethoxy]benzoate], with 190 °C.
`CCOC(=O)c1ncn(CCOc2ccc(C#N)cc2)c1O` [Example 6, ethyl 5-hydroxy-1-[2-(-4-cyanophenoxy)ethyl]-1H-imidazole-4-carboxylate] showed a melting point of 190 °C.
On to `CCOC(=O)c1ncn(CCOc2ccc(F)cc2)c1O` [Example 7, ethyl 5-hydroxy-1-[2-(-4-fluorophenoxy)ethyl]-1H-imidazole-4-carboxylate], for which the melting point was 200 °C.
`CCOC(=O)c1ncn(CCOc2ccc(C(=O)OC)cc2)c1O` [Example 8, ethyl 5-hydroxy-1-{2-[-4(methoxycarbonyl)phenoxy]ethyl}-1H-imidazole-4-carboxylate]: the melting point worked out at 202 °C.
The same measure, in the same setting: in the case of `CCOC(=O)c1ncn(Cc2ccccc2)c1OC` [Example 9, ethyl 1-benzyl-5-methoxy-1H-imidazole-4-carboxylate] it was 150 to 153 °C.
`NC(=O)c1c(O)ncn1Cc1ccc(F)cc1` [Example 10, 5-hydroxy-3-(4-fluorobenzyl)imidazole-4-carboxamide] came in with a melting point of 230 to 234 °C.
As to `NC(=O)c1c(O)ncn1Cc1ccc(Cl)cc1` [Example 11, 5-hydroxy-3(4-chlorobenzyl)imidazole 4-carboxamide], the melting point is 206 to 212 °C.
Same read-out and setting: then `CCOC(=O)c1ccc(Cn2cnc(O)c2C(N)=O)cc1` [Example 12, 5-hydroxy-3-[4-(ethoxycarbonyl)benzyl]imidazole-4-carboxamide], with 266 to 268 °C; and `NC(=O)c1c(O)ncn1-c1ccccc1` [Example 13, 5-hydroxy-3-phenylimidazole-4-carboxamide], with 182 °C.
The same measure, in the same setting: then `NC(=O)c1c(O)ncn1CCOc1ccc(F)cc1` [Example 15, 3-[2-(4-fluorophenoxy)ethyl]-5-hydroxy-3H-imidazole-4-carboxamide], with 230 °C.
Still for that read-out and setting: in the case of `N#Cc1ccc(OCCn2cnc(O)c2C(N)=O)cc1` [Example 16, 3-[2-(4-cyanophenoxy)ethyl]-5-hydroxy-3H-imidazole-4-carboxamide] it was 264 °C; in that of `COC(=O)c1ccc(OCCn2cnc(O)c2C(N)=O)cc1` [Example 16b is, methyl 4-[2-(5-carbamoyl-4-hydroxyimidazol-1-yl)ethoxy]-benzoate], 263 °C; in that of `NC(=O)c1c(O)ncn1Cc1ccc(N)cc1` [Example 18, 3-(4-aminobenzyl)-5-hydroxy-3H-imidazole-4-carboxamide], 230 to 231 °C.
Consider `COc1ncn(Cc2ccc([N+](=O)[O-])cc2)c1C(N)=O` [Example 19, 3-(4-nitrobenzyl)-5-methoxy-3H-imidazole-4-carboxamide], for which the melting point is 201 to 203 °C.
For `NC(=O)c1c(OCc2ccccc2)ncn1Cc1ccc([N+](=O)[O-])cc1` [Example 20, 3-(4-nitrobenzyl)-5-benzyloxy-3H-imidazole-4-carboxamide], the melting point lay in the range of 193 to 195 °C.
Same read-out and setting: in the case of `COc1cccc(C(=O)Nc2ccc(Cn3cnc(O)c3C(N)=O)cc2)c1` [Example 21, 5-hydroxy-3-[4-(3-methoxybenzoylamino)benzyl]-3H-imidazole-4-carboxamide] it was 257 to 259 °C.
`NC(=O)c1c(O)ncn1Cc1ccc(NC(=O)Nc2ccccc2)cc1` [Example 41, 5-hydroxy-3-[4-(3-phenylureido)benzyl]-3H-imidazole-4-carboxamide] registered a melting point of 232 to 235 °C.
`NC(=O)Nc1ccc(Cn2cnc(O)c2C(N)=O)cc1` [Example 42, 5-hydroxy-3-[4-ureidobenzyl]-3H-imidazole-4-carboxamide]: the melting point lay within 243 to 244 °C.
Consider `NC(=O)c1c(O)ncn1Cc1ccc(NC(=O)Nc2cccc(C(=O)O)c2)cc1` [Example 70, 3-{3-[4-(5-carbamoyl-4-hydroxyimidazol-1-ylmethyl)phenyl]ureido}benzoic acid], for which the melting point is 218 to 220 °C.
